Test results taken from ChEMBL document CHEMBL1201862, “PubChem BioAssay data set” (2004).
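Five compound concentrations were applied to cells in 96-well plates for 48 hours; endpoints were derived by simple linear interpolation of the resulting dose-response curve. The concentration for 50% growth inhibition is given as GI50.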 Activity calls are given as the source filed them. No stated cut-off is given here; in the data, active = GI50 up to about 1.1 µM and inactive = higher.

Columns and labels:
Assay in all cases: NCI-60 cell line screen, 48 h
DU-145 = test system: DU-145
EKVX = test system: EKVX
HT-29 = test system: HT-29
K562 = test system: K562
KM12 = test system: KM12
M14 = test system: M14
MDA-MB-435 = test system: MDA-MB-435
MDA-N = test system: MDA-N
MOLT-4 = test system: MOLT-4
NCI-H522 = test system: NCI-H522
OVCAR-8 = test system: OVCAR-8
SN12C = test system: SN12C
SW-620 = test system: SW-620
T47D = test system: T47D
TK-10 = test system: TK-10
UO-31 = test system: UO-31
SK-OV-3 = test system: SK-OV-3
SNB-75 = test system: SNB-75
LOX IMVI = test system: LOX IMVI

Measured: GI50

COC(=O)c1onc(C2OC(C)(C)OC2C(O)COC(c2ccccc2)(c2ccccc2)c2ccccc2)c1C(=O)OC (configuration not stated)
inactive: DU-145 > 100 µM | EKVX 41.9 µM | HT-29 > 100 µM | K562 72.8 µM | KM12 > 100 µM | M14 > 100 µM | MDA-MB-435 89.5 µM | MDA-N > 100 µM | MOLT-4 29.4 µM | NCI-H522 65.8 µM | OVCAR-8 > 100 µM | SN12C > 100 µM | SW-620 > 100 µM | T47D > 100 µM | TK-10 > 100 µM | UO-31 > 100 µM

N=C(N)C1CN(CCc2c[nH]cn2)C(=O)NC1=O (configuration not stated)
inactive: DU-145 > 100 µM | EKVX > 100 µM | HT-29 > 100 µM | KM12 > 100 µM | M14 > 100 µM | MDA-MB-435 > 100 µM | MDA-N > 100 µM | MOLT-4 > 100 µM | NCI-H522 > 100 µM | OVCAR-8 > 100 µM | SK-OV-3 > 100 µM | SN12C > 100 µM | SNB-75 > 100 µM | SW-620 > 100 µM | TK-10 > 100 µM | UO-31 > 100 µM

c1ccc(-c2cc(-c3cc(-c4ccccc4)[nH]n3)[nH]n2)cc1
inactive: DU-145 > 100 µM | EKVX > 100 µM | HT-29 > 100 µM | K562 > 100 µM | KM12 > 100 µM | M14 > 100 µM | MDA-MB-435 > 100 µM | MDA-N > 100 µM | MOLT-4 > 100 µM | NCI-H522 > 100 µM | OVCAR-8 > 100 µM | SK-OV-3 > 100 µM | SN12C > 100 µM | SNB-75 > 100 µM | T47D > 100 µM | TK-10 > 100 µM | UO-31 > 100 µM

COCOc1ccc(C(=O)C(C)c2ccc(OCOC)cc2OCOC)c(O)c1 (configuration not stated)
inactive: DU-145 > 100 µM | EKVX 83.6 µM | HT-29 > 100 µM | M14 > 100 µM | MDA-MB-435 71.3 µM | MDA-N 52.8 µM | MOLT-4 42.6 µM | NCI-H522 41.5 µM | OVCAR-8 > 100 µM | SK-OV-3 > 100 µM | SN12C > 100 µM | SNB-75 33.5 µM | SW-620 > 100 µM | TK-10 > 100 µM | UO-31 33.2 µM

Cc1ccc2oc(=O)c(C(=O)Nc3nc(C45CC6CC(CC(C6)C4)C5)cs3)cc2c1
inactive: DU-145 > 100 µM | EKVX > 100 µM | HT-29 > 100 µM | K562 > 100 µM | KM12 > 100 µM | LOX IMVI > 100 µM | MDA-MB-435 > 100 µM | MDA-N > 100 µM | MOLT-4 > 100 µM | NCI-H522 > 100 µM | OVCAR-8 > 100 µM | SN12C > 100 µM | SNB-75 > 100 µM | SW-620 > 100 µM | UO-31 > 100 µM

CCCCCC#CCOC(=O)C(=[N+]=[N-])P(=O)(c1ccccc1)c1ccccc1
inactive: DU-145 > 10 µM | EKVX > 10 µM | HT-29 > 10 µM | K562 > 10 µM | KM12 > 10 µM | LOX IMVI > 10 µM | M14 > 10 µM | MDA-MB-435 > 10 µM | MDA-N > 10 µM | MOLT-4 > 10 µM | OVCAR-8 > 10 µM | SK-OV-3 > 10 µM | SN12C > 10 µM | SNB-75 > 10 µM | SW-620 > 10 µM | T47D > 10 µM | TK-10 > 10 µM | UO-31 > 10 µM

C1=C(c2ccccc2)Nc2nnnn2C1c1ccccc1 (configuration not stated)
inactive: DU-145 26.9 µM | HT-29 17.4 µM | K562 21.4 µM | KM12 13.5 µM | LOX IMVI 17.3 µM | M14 23.9 µM | MDA-MB-435 11.1 µM | MDA-N 20.1 µM | MOLT-4 22 µM | NCI-H522 23.1 µM | OVCAR-8 34.9 µM | SK-OV-3 58.1 µM | SN12C 71.3 µM | SW-620 22.1 µM | T47D 47.1 µM | TK-10 28.6 µM | UO-31 > 100 µM

CSc1nc(=S)[nH]c2c1c(C)nn2-c1ccccc1
inactive: DU-145 15.6 µM | EKVX 18.1 µM | HT-29 28.5 µM | K562 16.6 µM | LOX IMVI 15.7 µM | M14 40.5 µM | MDA-MB-435 40.5 µM | MDA-N 24.8 µM | MOLT-4 14.2 µM | NCI-H522 19.1 µM | SK-OV-3 24.8 µM | SN12C 21.1 µM | SW-620 34.5 µM | T47D 19.1 µM | TK-10 24.4 µM | UO-31 22 µM

CC(=O)N1CCn2c1nc1cc(Cl)ccc12
inactive: DU-145 33.4 µM | EKVX 54.3 µM | HT-29 > 100 µM | K562 > 100 µM | KM12 > 100 µM | LOX IMVI 39.2 µM | M14 > 100 µM | MDA-MB-435 > 100 µM | MDA-N > 100 µM | MOLT-4 > 100 µM | NCI-H522 42.5 µM | OVCAR-8 74.3 µM | SK-OV-3 25.1 µM | SN12C > 100 µM | SW-620 > 100 µM | T47D 21.4 µM | TK-10 63.1 µM

CCC1(COC(NC(=O)c2ccccc2)(C(F)(F)F)C(F)(F)F)COC1
inactive: EKVX > 100 µM | HT-29 > 100 µM | K562 > 100 µM | LOX IMVI > 100 µM | M14 > 100 µM | MDA-MB-435 > 100 µM | MDA-N > 100 µM | MOLT-4 52.4 µM | OVCAR-8 > 100 µM | SK-OV-3 > 100 µM | SN12C > 100 µM | SNB-75 > 100 µM | SW-620 > 100 µM | T47D > 100 µM | TK-10 > 100 µM | UO-31 > 100 µM

CCOP(=O)(/C=C\n1cnc2c(=O)n(C(C)=O)c(N)nc21)OCC
inactive: DU-145 > 100 µM | EKVX > 100 µM | HT-29 > 100 µM | K562 > 100 µM | KM12 > 100 µM | LOX IMVI > 100 µM | M14 > 100 µM | MDA-MB-435 > 100 µM | MDA-N > 100 µM | MOLT-4 > 100 µM | OVCAR-8 > 100 µM | SK-OV-3 > 100 µM | SN12C > 100 µM | SNB-75 > 100 µM | SW-620 > 100 µM | T47D > 100 µM | TK-10 > 100 µM

Cc1nn(C)c2nc3ccc(Cl)cc3c(-c3ccccc3)c12
inactive: DU-145 > 100 µM | EKVX > 100 µM | HT-29 > 100 µM | K562 > 100 µM | KM12 > 100 µM | M14 > 100 µM | MDA-MB-435 > 100 µM | MDA-N > 100 µM | MOLT-4 > 100 µM | NCI-H522 > 100 µM | OVCAR-8 > 100 µM | SK-OV-3 > 100 µM | SN12C > 100 µM | SNB-75 > 100 µM | SW-620 > 100 µM | T47D > 100 µM | UO-31 > 100 µM
